# Laboratory results reported in patent US11865176B2, “Compositions and methods of modulating anti-tumor immunity” (Dana-Farber Cancer Institute, Inc., priority 2016, dated 2024).
# Values joined by “and” are separate entries in the source; they are usually repeats but may differ in a detail not shown here. Identical values can stand only once.
# System: PD-1-overexpressing Jurkat cells
# Assay: Small molecule screen: IL2 secretion (AlphaLISA) from stimulated PD-1-overexpressing Jurkat cells
# Format: cell-based, human
# Conditions: 3.3 μM compound; for Zscore_1 / Zscore_2: IL2 level, α-CD3/α-CD28/α-PD-1 beads; for Zscore_1: replicate 1; for Zscore_2: replicate 2; for Zscore_AVG: average of replicate Z scores
# Protocol: PD-1-overexpressing Jurkat cells were plated at a concentration of 100,000 cells/well in a total volume of 80 μl. […] Dynabeads conjugated to α-CD3, α-CD28, and α-PD-1 antibodies were added in 20 for a final assay volume of 100 with a final compound concentration of 3.3 μM and an 8:1 bead:cell ratio. Beads were conjugated to α-CD3/α-CD28/control IgG and added to wells containing DMSO-treated cells as a positive control, while beads conjugated to α-CD3/α-CD28/α-PD1 were added to wells containing DMSO-treated cells as a negative control. Supernatants from each well were analyzed for IL2 levels by AlphaLISA (Perkin Elmers) according to the manufacturer's protocol. Average and standard deviation values were calculated from the PD-1 controls (DMSO-treated cells stimulated with α-CD3/α-CD28/α-PD-1 beads); hits were defined as compounds scoring at least 3 standard deviations from the mean of the controls.
# In addition to known negative regulators of IL-2 production (e.g. glycogen synthase kinase-3α/β (GSK3α/β) (24,25)), this screen identified cyclin-dependent kinases 4 and 6 inhibitors (CDK4/6i) as top hits (Table 1).
Compound,Zscore_1,Zscore_2,Zscore_AVG
C[S+]([O-])c1ccc(-c2nc(-c3ccc(F)cc3)c(-c3ccncc3)[nH]2)cc1 (stereo not drawn) [SB 203580],−0.8209,−0.02124,−0.4211
"COc1ccc2nc3n[nH]c(C)c3c(NCCOCCO)c2c1 [Ras/Rac Transformation Blocker, SCH 51344]",−2.363,−3.128,−2.746
"c1cc(-c2cnn3cc(-c4ccc(OCCN5CCCCC5)cc4)cnc23)ccn1 [AMPK Inhibitor, Compound C]",−2.877,1.296,−0.7902
COc1ccc2c(c1)/C(=C/c1cnc[nH]1)C(=O)N2 [SU9516],8.231,12.12,10.18
N#CC(C#N)=C(N)/C(C#N)=C/c1ccc(O)cc1 [AG 112],−1.54,−3.816,−2.678
Tpl2 Kinase Inhibitor II,−2.398,−4.19,−3.294
O=C(c1ccccc1)c1ccc(N2CCOCC2)cc1O [DNA-PK Inhibitor V],−2.22,−4.112,−3.166
O=C(Nc1ccc(Cl)cc1)c1ccccc1NCc1ccncc1 [VEGF Receptor Tyrosine Kinase Inhibitor II],−1.404,−0.1009,−0.7522
COc1cc2nccc(Oc3ccc(NC(=S)NC(=O)c4ccccc4C)cc3)c2cc1OC [PDGF RTK Inhibitor],−3.239,−6.099,−4.669
CCCCn1c2ccc(O)cc2c2c3c(c(-c4ccccc4Cl)cc21)C(=O)NC3=O [Wee1 Inhibitor II],0.7541,−1.786,−0.5162
"CN[C@@H]1C[C@H]2O[C@@](C)([C@@H]1OC)n1c3ccccc3c3c4c(c5c6ccccc6n2c5c31)C(=O)NC4 [Staurosporine, Streptomyces sp.]",−6.893 and −7.431,−9.439 and −9.651,−8.166 and −8.541
CC[C@H](CO)Nc1nc(NCc2ccccc2)c2ncn(C(C)C)c2n1 [Roscovitine],−1.54,−2.209,−1.875
Cc1cncc2cccc(S(=O)(=O)N3CCCN(C(=O)CN)C[C@@H]3C)c12 [Rho Kinase Inhibitor IV],−5.704,−5.042,−5.373
O=c1c2ccccc2[nH]c(=S)n1CCN1CCC(=C(c2ccc(F)cc2)c2ccc(F)cc2)CC1 [Diacylglycerol Kinase Inhibitor II],−0.9879,0.3398,−0.324
PI 3-K&gamme;/CKII Inhibitor,−0.8209,−0.5789,−0.6999
CC(C)[C@H](CO)Nc1nc(Nc2cccc(Cl)c2)c2ncn(C(C)C)c2n1 [Purvalanol A],−3.126,0.37,−1.378
Cc1cccc(-c2[nH]c(C(C)(C)C)nc2-c2ccc3c(c2)OCO3)n1 [TGF-b RI Inhibitor III],−0.4096,−0.6585,−0.5341
O=C1Cc2c([nH]c3ccc(Br)cc23)-c2ncccc2N1 [1-Azakenpaullone],0.418,1.913,1.165
CN([C@@H](Cc1ccc(OS(=O)(=O)c2cccc3cnccc23)cc1)C(=O)N1CCN(c2ccccc2)CC1)S(=O)(=O)c1cccc2cnccc12 [KN-62],−0.2488,−0.8434,−0.5461
O=C1NCCc2[nH]c(-c3ccncc3)cc21 [Cdc7/Cdk9 Inhibitor],−9.816,−10.33,−10.08
